{"source": "paper PMC8208785", "about": "“Therapeutic efficacy of novel memantine nitrate MN‐08 in animal models of Alzheimer’s disease” (Aging Cell, 2021)", "key": {"[1]": {"test_system": "cerebellar granule neurons (CGNs)", "assay": "MTT cell viability, glutamate-induced excitotoxicity in CGNs", "assay_type": "cell-based, rat", "conditions": "MN‐08 1–50 µM for 2 h, then 100 μM glutamate 24 h", "description": "Excessive glutamate‐induced excitotoxicity might cause dysfunctions of cellular pathways, subsequently resulting in synaptic dysfunctions and neuronal loss. To evaluate the neuroprotective effects of MN‐08 against excitotoxicity, cerebellar granule neurons (CGNs) were treated with MN‐08 at the concentrations from 1 to 50 µM or memantine from 1 to 10 μM for 2 h, and then exposed to 100 μM glutamate for 24 h. […] Similarly, in APP/PS1 mice, MN‐08 prevented neuronal loss in the hippocampus by upregulating the expression ratio of Bcl‐2/Bax and downregulating the expression ratio of cleaved Caspase‐3 to Caspase‐3 (Figure S6).\nCGNs were prepared from the 8-day-old Sprague–Dawley rats as described in our previous publication (Li et al., 2005). Briefly, animals were anesthetized and sacrificed, and their cerebella were collected. […]\nNeurotoxicity was assessed using the tetrazolium salt 3-(4,5-dimethylthiazol-2-yl)-2,5- diphenyltetrazolium bromide dye (MTT) assay as previous publication (Luo et al., 2010). […] Cell viability was evaluated by observing colorimetric changes using a CLARIOstar plus Microplate Reader (BMG Labtech, Ortenberg, Germany) at a test wavelength of 570 nm with 655 nm as a reference wavelength. Data were expressed as a percentage of control cultures."}, "[2]": {"assay": "pharmacokinetic analysis of MN-08 in rats", "assay_type": "in vivo", "conditions": "both sexes, rat, plasma, po; for Cmax: read-out: Cmax, peak concentration; for half-life: read-out: T1/2, mean terminal half-life (converted); for Tmax: read-out: Tmax, mean time to peak", "description": "Healthy adult rats were cannulated under anesthesia one day before dosing, then randomly categorized into 3 groups (3 males and 3 females for each group): (1) MN-08 (3 mg/kg) group; (2) MN-08 (12 mg/kg) group; (3) MN-08 (24 mg/kg) group. Following single administration of MN-08 by gastric gavage, plasma samples (approximately 150 μL) were collected at different time points (Pre-dose and 0.25, 0.5, 1, 2, 4, 8, 12, 24 h after dose). The blood samples were placed in heparinized tubes and centrifuged at 3000 rpm for 10 min. The supernatant plasma was stored at -80°C until analysis. The concentration of MN-08 in blood samples was analyzed by the LC-MS/MS method as previously described (Tian et al., 2016)."}, "[3]": {"test_system": "3×Tg‐AD mice", "assay": "behavioral tests (SDA, NOR, MWM), treatment study in 3×Tg-AD mice", "assay_type": "in vivo", "conditions": "3, 6, and 12 mg/kg, vs vehicle", "description": "Triple transgenic 3×Tg‐AD mice were acquired from Jackson Laboratory and fostered in the Shenzhen Center for Disease Control and Prevention (Shenzhen, China). Eight‐month‐old 3×Tg‐AD mice were categorized into six groups: (1) 3×Tg‐AD +Vehicle group; (2) 3×Tg‐AD +MN‐08 (3 mg/kg) group; (3) 3×Tg‐AD +MN‐08 (6 mg/kg) group; (4) 3×Tg‐AD +MN‐08 (12 mg/kg) group; (5) 3×Tg‐AD +Memantine (Mem, 5 mg/kg) group; (6) 3×Tg‐AD +Donepezil (Done, 1.3 mg/kg, once daily) group; (7) Eight‐month‐old B6129SF2/J mice as a control group. MN‐08 and memantine were given twice daily (Done, once daily) by gastric gavage for 4 months from 8 months of age.\nThe step-down avoidance (SDA) test was performed as previously described (Zhou et al., 2019). During the training phase, mice were singly placed on a metal floor with electrical stimulation (35 V) for 5 min. After 24 hours, the mouse was positioned on a wooden platform, while the metal floor at the bottom delivered an electrical shock (35 V) for another 5 min. The time for the animal to step down from the wooden platform were recorded as the step-down latency to evaluate retention memory.\nHippocampus-dependent spatial memory was determined by the Morris water maze (MWM) test according to the protocol described in a previous study (Jiao et al., 2015). The MWM test includes a platform training phase and a probe trial phase. An escape platform was placed in a fixed spatial location. During the training phase, each animal was placed at one of four different starting positions and tested four times a day with an interval of approximately 30 min. The animal in the water was immediately removed when it swam to the escape platform within 60 s. […] After the training phase, the probe trial was performed on the sixth day when the platform was removed. The animal was placed in the same starting position in the pool and allowed to move freely for 2 min. The animal swimming track was recorded and analyzed with a digital camera.\nThe novel object recognition test was performed to assess non-spatial working memory according to previously published protocols (Choi et al., 2011). Firstly, each animal was sequentially placed into a square box (50 × 50 × 50 cm, length × width × height) without any objects for 10 min per day for 2 continuous days to habituate to the environment. Then, two identical objects were placed parallel near one wall of the square box. Animals were placed singly in the box and allowed to explore the objects for 10 min. […] The time each animal took to examine the familiar object and novel object was recorded by digital camera. The discrimination index was calculated according to the following expression: (novel object (s) - familiar object (s))/ (novel object (s) + familiar object (s)). […]"}, "[4]": {"test_system": "intact narcotized rats", "design": "method as in Mirzoyan et al., 2014", "conditions": "intact narcotized rats and animals with global transient ischemia; ref Mirzoyan et al., 2014; cited from earlier work"}, "[5]": {"conditions": "single intragastric dose 3 mg/kg"}, "[6]": {"conditions": "single intragastric dose 12 mg/kg"}, "[7]": {"conditions": "single intragastric dose 24 mg/kg"}}, "note": "Read-outs that look alike come from different tables or passages of the source."}
{"smiles": "CCC12CC3CC(N)(C1)CC(CO[N+](=O)[O-])(C3)C2", "note": "(stereo not drawn) [MN‐08]", "values": [{"measurement": "protection against glutamate‐induced excitotoxicity (MTT)", "setting": "[1]", "value": "concentration‐dependently protect"}, {"measurement": "Cmax", "setting": "[2]; [5]", "value": 97.5, "unit": "ng/mL"}, {"measurement": "half-life", "setting": "[2]; [5]", "value": 5.26, "unit": "h"}, {"measurement": "Tmax", "setting": "[2]; [5]", "value": 1.08, "unit": "h"}, {"measurement": "Cmax", "setting": "[2]; [6]", "value": 399, "unit": "ng/mL"}, {"measurement": "half-life", "setting": "[2]; [6]", "value": 6.81, "unit": "h"}, {"measurement": "Tmax", "setting": "[2]; [6]", "value": 1.83, "unit": "h"}, {"measurement": "Cmax", "setting": "[2]; [7]", "value": 674, "unit": "ng/mL"}, {"measurement": "half-life", "setting": "[2]; [7]", "value": 6.82, "unit": "h"}, {"measurement": "Tmax", "setting": "[2]; [7]", "value": 4, "unit": "h"}, {"measurement": "step‐down latency", "setting": "[3]; 4 months from 8 months of age", "value": "significant increase"}, {"measurement": "discrimination index (NOR)", "setting": "[3]; 4 months", "value": "significant increase"}, {"measurement": "escape latency time (MWM)", "setting": "[3]; 4 months", "value": "significant reduction"}, {"measurement": "number of crossings (MWM)", "setting": "[3]; 4 months", "value": "significant increase"}]}
{"smiles": "CC12CC3CC(C)(C1)CC(N)(C3)C2", "note": "[memantine, 1‐amino‐3,5‐dimethyladamantane]", "values": [{"measurement": "local cerebral blood flow (CBF) in the brain cortices", "setting": "[4]", "value": "reduce"}]}
